Test results reported in BindingDB's records for doi:10.1021/acs.jmedchem.9b00359 (Shandong University, 2019).

Assay: Inhibition of HIV1 reverse transcriptase p66/p51 K103N/Y181C mutant infected in human MT2 cells assessed as reduction in viral infection incubated for 5 days
For `C=CC(=O)Nc1cc(Oc2ccccc2OCCn2ccc(=O)[nH]c2=O)c(C)c2cc(C#N)ccc12`, the EC50 was greater than 12 µM.
`C=CC(=O)N(C)c1cc(Oc2ccccc2OCCn2ccc(=O)[nH]c2=O)c(C)c2cc(C#N)ccc12` gave an EC50 of 0.5 µM.
With `Cc1c(Oc2ccccc2OCCn2ccc(=O)[nH]c2=O)cc(N(C)C(=O)CF)c2ccc(C#N)cc12` the EC50 was 15 µM.
